Results from ChEMBL document CHEMBL3046633, “Synthesis and antimycobacterial activities of some new N-acylhydrazone and thiosemicarbazide derivatives of 6-methyl-4,5-dihydropyridazin-3(2H)-one” (2012).
Converted amounts (≈) assume the structure as drawn.

Tested on: Mycobacterium tuberculosis
Assay: Antimycobacterial activity against Mycobacterium tuberculosis by agar dilution method
Type: functional

Row | Structure (SMILES) | MIC [µM]
1 | CC1=NN(CC(=O)N/N=C/c2ccc(F)cc2)C(=O)CC1 | 1.56 (≈ 0.453 µg/mL)
2 | CC1=NN(CC(=O)N/N=C/c2ccccc2)C(=O)CC1 | 12.5 (≈ 3.4 µg/mL)
3 | NNC(=O)c1ccncc1 [ISONIAZID] | 0.05 (≈ 0.00686 µg/mL)
4 | CC1=NN(CC(=O)N/N=C/c2ccc(C)cc2)C(=O)CC1 | 12.5 (≈ 3.58 µg/mL)
5 | CC1=NN(CC(=O)N/N=C(\C)c2ccc([N+](=O)[O-])cc2)C(=O)CC1 | 12.5 (≈ 4.14 µg/mL)
6 | CC1=NN(CC(=O)N/N=C/c2ccc(N(C)C)cc2)C(=O)CC1 | 12.5 (≈ 3.94 µg/mL)
7 | CO[C@H]1/C=C/O[C@@]2(C)Oc3c(C)c(O)c4c(O)c(c(/C=N/N5CCN(C)CC5)c(O)c4c3C2=O)NC(=O)/C(C)=C\C=C\[C@H](C)[C@H](O)[C@@H](C)[C@@H](O)[C@@H](C)[C@H](OC(C)=O)[C@@H]1C [RIFAMPIN] | 0.1 (≈ 0.0823 µg/mL)
8 | CC[C@@H](CO)NCCN[C@@H](CC)CO [ETHAMBUTOL] | 1.56 (≈ 0.319 µg/mL)
9 | CNC(=S)NNC(=O)CN1N=C(C)CCC1=O | > 25
10 | COc1ccc(/C(C)=N/NC(=O)CN2N=C(C)CCC2=O)cc1 | 25 (≈ 7.91 µg/mL)
11 | CC1=NN(CC(=O)N/N=C(\C)c2ccc(Cl)cc2)C(=O)CC1 | 12.5 (≈ 4.01 µg/mL)
12 | CC1=NN(CC(=O)N/N=C/c2ccc(Cl)cc2)C(=O)CC1 | 3.13 (≈ 0.96 µg/mL)
13 | CC1=NN(CC(=O)N/N=C/c2cccs2)C(=O)CC1 | 25 (≈ 6.96 µg/mL)
14 | CCOc1ccc(/C=N/NC(=O)CN2N=C(C)CCC2=O)cc1 | > 25
15 | COc1ccc(/C=N/NC(=O)CN2N=C(C)CCC2=O)cc1 | 25 (≈ 7.56 µg/mL)
16 | CC1=NN(CC(=O)N/N=C/c2ccc(C(F)(F)F)cc2)C(=O)CC1 | 1.56 (≈ 0.531 µg/mL)
17 | CC1=NN(CC(=O)N/N=C/c2ccc(Br)cc2)C(=O)CC1 | 1.56 (≈ 0.548 µg/mL)
18 | CCNC(=S)NNC(=O)CN1N=C(C)CCC1=O | > 25
19 | CC1=NN(CC(=O)N/N=C(\C)c2ccc(C)cc2)C(=O)CC1 | 25 (≈ 7.51 µg/mL)
20 | CC1=NN(CC(=O)N/N=C(\C)c2ccc(Cl)cc2Cl)C(=O)CC1 | 12.5 (≈ 4.44 µg/mL)
21 | CC1=NN(CC(=O)NNC(=S)Nc2ccccc2)C(=O)CC1 | > 25
22 | CC1=NN(CC(=O)N/N=C(\C)c2ccccc2)C(=O)CC1 | 25 (≈ 7.16 µg/mL)
23 | CC1=NN(CC(=O)N/N=C(\C)c2ccc(Br)cc2)C(=O)CC1 | 12.5 (≈ 4.57 µg/mL)
24 | O=C(O)c1cn(C2CC2)c2cc(N3CCNCC3)c(F)cc2c1=O [CIPROFLOXACIN] | 1.56 (≈ 0.517 µg/mL)
25 | CC1=NN(CC(=O)N/N=C(\C)c2ccc(-c3ccccc3)cc2)C(=O)CC1 | 25 (≈ 9.06 µg/mL)
26 | CC1=NN(CC(=O)N/N=C/c2ccc(Cl)cc2Cl)C(=O)CC1 | 0.78 (≈ 0.266 µg/mL)
27 | CC1=NN(CC(=O)N/N=C/c2ccco2)C(=O)CC1 | > 25
28 | CC1=NN(CC(=O)N/N=C/c2ccc([N+](=O)[O-])cc2)C(=O)CC1 | 6.25 (≈ 1.98 µg/mL)
29 | CC1=NN(CC(=O)NN)C(=O)CC1 | 25 (≈ 4.6 µg/mL)
